This is an account of results in ChEMBL document CHEMBL4651402, “Screening of ~5500 FDA-approved drugs and clinical candidates for anti-SARS-CoV-2 activity” (2021).

Data set [1] has as its system SARS-CoV-2. Put plainly: microbe, parasite or virus in culture. It counts as functional, organism-based, Chlorocebus sabaeus, Vero C1008. The conditions noted are these: Severe acute respiratory syndrome coronavirus 2, Vero C1008, 48 h.
In data set [2] the test system is SARS-CoV-2. Put plainly: microbe, parasite or virus in culture. The conditions noted are these: Severe acute respiratory syndrome coronavirus 2, Vero C1008, 48 h.
Data set [3] can be described thus: in vitro. The settings on record: chlorocebus sabaeus.
The mark [4] stands for this setting: Vero E6 (Vero C1008) cells, CC50.
Where [5] appears, read: Vero E6 (Vero C1008) cells, pCC50.

In the case of `CNCC[C@@H](Oc1cccc2ccccc12)c1cccs1` [(R)-DULOXETINE], the IC50 was greater than 100 µM in data set [1] (read-out: IC50), greater than 100 µM in data set [1] (read-out: pIC50 (converted)), 7.24 µM in data set [2] and 7.24 µM in data set [2] (read-out: pIC50 (converted)). In addition, the CC50 at 48 h in data set [3] (vero c1008, CC50) is 16.2 µM; in data set [3] (vero c1008, pCC50), 16.2 µM.

As for `CN[C@@H]1C[C@@H](c2ccc(Cl)c(Cl)c2)c2ccccc21` [(R,S)-INDATRALINE], the IC50 in data set [1] (read-out: IC50) is greater than 100 µM; in data set [1] (read-out: pIC50 (converted)), greater than 100 µM; in data set [2] it was 8.32 µM; in data set [2] (read-out: pIC50 (converted)) it was 8.32 µM. Also, the CC50 at 48 h in data set [3] (setting [4]) and in data set [3] (setting [5]) was 8.51 µM in each case.

For `CC(=O)O[C@H]1CC[C@@]2(C)C(=CC[C@@H]3[C@@H]2CC[C@]2(C)C(c4cccnc4)=CC[C@@H]32)C1` [ABIRATERONE ACETATE], the IC50 is greater than 25.1 µM in data set [1] (read-out: IC50), greater than 25.1 µM in data set [1] (read-out: pIC50 (converted)), greater than 100 µM in data set [2] and greater than 100 µM in data set [2] (read-out: pIC50 (converted)). For the same molecule, the CC50 at 48 h in data set [3] (setting [4]) was 9.89 µM; in data set [3] (setting [5]) it was 9.77 µM.

As for `CC(=O)c1ccc2c(c1)N(CCCN(C)C)c1ccccc1S2` [ACEPROMAZINE], the IC50 in data set [1] (read-out: IC50), in data set [1] (read-out: pIC50 (converted)), in data set [2] and in data set [2] (read-out: pIC50 (converted)) was greater than 100 µM in each case. In addition, the CC50 at 48 h in data set [3] (setting [4]) and in data set [3] (setting [5]) was 22.4 µM in each case.

Turning to `CC(=O)c1ccc2c(c1)N(CCCN1CCN(CCO)CC1)c1ccccc1S2` [ACETOPHENAZINE], the IC50 in data set [1] (read-out: IC50), in data set [1] (read-out: pIC50 (converted)), in data set [2] and in data set [2] (read-out: pIC50 (converted)) was greater than 100 µM each time. Further, the CC50 at 48 h in data set [3] (setting [4]) is roughly 14.6 µM; in data set [3] (setting [5]) it was roughly 14.5 µM.

In the case of `Cc1cc(O[C@@H](CCC(F)(F)F)c2ccc(C(=O)NCCC(=O)O)cc2)cc(C)c1-c1ccc(C(C)(C)C)cc1` [ADOMEGLIVANT], the IC50 in data set [1] (read-out: IC50) is greater than 6.31 µM; in data set [1] (read-out: pIC50 (converted)), greater than 6.31 µM; in data set [2], greater than 10 µM; in data set [2] (read-out: pIC50 (converted)), greater than 10 µM. The CC50 at 48 h in data set [3] (setting [4]) is roughly 10.4 µM; in data set [3] (setting [5]), roughly 10.2 µM.

On to `CNC(=O)[C@@H](c1ccccc1)N1CCc2cc(OC)c(OC)cc2[C@@H]1CCc1ccc(C(F)(F)F)cc1` [ALMOREXANT], for which the IC50 is greater than 25.1 µM in data set [1] (read-out: IC50), greater than 25.1 µM in data set [1] (read-out: pIC50 (converted)), 18.6 µM in data set [2] and 18.6 µM in data set [2] (read-out: pIC50 (converted)). In addition, the CC50 at 48 h in data set [3] (setting [4]) and in data set [3] (setting [5]) was 21.4 µM in each case.

In the case of `CCOC(=O)[C@H]1O[C@@H]1C(=O)N[C@@H](CC(C)C)C(=O)NCCC(C)C` [ALOXISTATIN], the IC50 in data set [1] (read-out: IC50) is 85.1 µM; in data set [1] (read-out: pIC50 (converted)) it was 85.1 µM; in data set [2], 34.3 µM; in data set [2] (read-out: pIC50 (converted)), 33.9 µM. Besides, the CC50 at 48 h in data set [3] (setting [4]) and in data set [3] (setting [5]) was greater than 100 µM in each case.

Consider `C=C1CC[C@@H]2[C@](C)(CO)[C@H](O)CC[C@@]2(C)[C@@H]1C/C=C1/C(=O)OC[C@H]1O` [ANDROGRAPHOLIDE], for which the IC50 in data set [1] (read-out: IC50), in data set [1] (read-out: pIC50 (converted)), in data set [2] and in data set [2] (read-out: pIC50 (converted)) was greater than 100 µM each time. Further, the CC50 at 48 h in data set [3] (setting [4]) is roughly 21.6 µM; in data set [3] (setting [5]), roughly 21.4 µM.

With `O=C1c2c(O)cccc2Cc2cccc(O)c21` [ANTHRALIN], the IC50 in data set [1] (read-out: IC50), in data set [1] (read-out: pIC50 (converted)), in data set [2] and in data set [2] (read-out: pIC50 (converted)) was greater than 100 µM throughout. Moreover, the CC50 at 48 h in data set [3] (setting [4]) and in data set [3] (setting [5]) was greater than 100 µM in each case.

As for `CN1CCCC(n2nc(Cc3ccc(Cl)cc3)c3ccccc3c2=O)CC1` (stereo not given) [AZELASTINE], the IC50 in data set [1] (read-out: IC50) was greater than 100 µM; in data set [1] (read-out: pIC50 (converted)), greater than 100 µM; in data set [2], 13.3 µM; in data set [2] (read-out: pIC50 (converted)), 13.2 µM. In addition, the CC50 at 48 h in data set [3] (setting [4]) and in data set [3] (setting [5]) was 17.8 µM each time.

For the molecule `Nc1nc(Nc2ccc3c(c2)CC[C@@H](N2CCCC2)CC3)nn1-c1cc2c(nn1)-c1ccccc1CCC2` [BEMCENTINIB], the IC50 in data set [1] (read-out: IC50) was greater than 50.1 µM; in data set [1] (read-out: pIC50 (converted)), greater than 50.1 µM; in data set [2], 1.78 µM; in data set [2] (read-out: pIC50 (converted)) it was 1.78 µM. Besides, the CC50 at 48 h in data set [3] (setting [4]) and in data set [3] (setting [5]) was 1.55 µM in each case.

Turning to `CNCc1ccc(-c2cc(-c3nc(-c4ccc(S(=O)(=O)C(C)C)cc4)cnc3N)on2)cc1` [BERZOSERTIB], the IC50 in data set [1] (read-out: IC50) was roughly 7.16 µM; in data set [1] (read-out: pIC50 (converted)), roughly 7.08 µM; in data set [2], greater than 5.01 µM; in data set [2] (read-out: pIC50 (converted)), greater than 5.01 µM. In addition, the CC50 at 48 h in data set [3] (setting [4]) and in data set [3] (setting [5]) was 10.2 µM throughout.

Turning to `CNCCCCOc1ccccc1Cc1ccccc1` [BIFEMELANE], the IC50 in data set [1] (read-out: IC50) is 20.9 µM; in data set [1] (read-out: pIC50 (converted)), 20.9 µM; in data set [2] it was greater than 100 µM; in data set [2] (read-out: pIC50 (converted)), greater than 100 µM. Besides, the CC50 at 48 h in data set [3] (vero c1008, CC50) was 26.9 µM; in data set [3] (vero c1008, pCC50) it was 26.9 µM.

With `Cc1ccc(C(=O)Oc2ccc(C(O)CNC(C)(C)C)cc2OC(=O)c2ccc(C)cc2)cc1` (stereo not given) [BITOLTEROL], the IC50 is greater than 100 µM in data set [1] (read-out: IC50), greater than 100 µM in data set [1] (read-out: pIC50 (converted)), 8.13 µM in data set [2] and 8.13 µM in data set [2] (read-out: pIC50 (converted)). Besides, the CC50 at 48 h is 5.69 µM in data set [3] (setting [4]) and 5.62 µM in data set [3] (setting [5]).
